Experimental data taken from patent publication US7678773B2, “Salts of avermectins substituted in the 4″-position and having pesticidal properties” (Merial Limited, priority 2001, dated 2010).
Read-outs that look alike come from different tables or passages of the source.

Columns and labels:
Type in all cases: in vivo
Tetranychus urticae = assay: Example B7: Action against Tetranychus urticae (sprayed bean plants); details: 144 h, read-out: reduction in the pest population (% activity)
Description: Young bean plants are populated with a mixed population of Tetranychus urticae and sprayed one day later with an aqueous emulsion spray mixture comprising 12.5 ppm of test compound. The plants are incubated for 6 days at 25° C. and subsequently evaluated. The percentage reduction in population (% activity) is determined by comparing the number of dead eggs, larvae and adults on the treated plants with that on untreated plants.

Spodoptera littoralis = assay: Example B1: Action against Spodoptera littoralis (sprayed soybean plants); details: 72 h, read-out: reduction in the pest population (% activity)
Description: Young soybean plants are sprayed with an aqueous emulsion spray mixture comprising 12.5 ppm of test compound and, after the spray-coating has dried, the plants are populated with 10 caterpillars of Spodoptera littoralis in the first stage and then placed in a plastics container. 3 days later, the percentage reduction in population and the percentage reduction in feeding damage (% activity) are determined by comparing the number of dead caterpillars and the feeding damage on the treated plants with that on untreated plants.

Diabrotica balteata = assay: Example B6: Action against Diabrotica balteata (sprayed maize seedlings); details: 144 h, read-out: reduction in the pest population (% activity)
Description: Maize seedlings are sprayed with an aqueous emulsion spray mixture comprising 12.5 ppm of the test compound and, after the spray-coating has dried, the maize seedlings are populated with 10 Diabrotica balteata larvae in the second stage and then placed in a plastics container. 6 days later, the percentage reduction in population (% activity) is determined by comparing the number of dead larvae on the treated plants with that on untreated plants.

Plutella xylostella = assay: Example B4: Action against Plutella xylostella caterpillars (sprayed cabbage plants); details: 72 h, read-out: reduction in the pest population (% activity)
Description: Young cabbage plants are sprayed with an aqueous emulsion spray mixture comprising 12.5 ppm of test compound. After the spray-coating has dried, the cabbage plants are populated with 10 caterpillars of Plutella xylostella in the first stage and placed in a plastics container. Evaluation is made 3 days later. The percentage reduction in population and the percentage reduction in feeding damage (% activity) are determined by comparing the number of dead caterpillars and the feeding damage on the treated plants with that on the untreated plants.

[1] = 12.5 ppm spray on young bean plants, mixed population, 6 days at 25° C.
[2] = 12.5 ppm spray on young soybean plants, first-stage caterpillars, evaluated 3 days later vs untreated plants
[3] = 12.5 ppm spray on maize seedlings, second-stage larvae, evaluated 6 days later
[4] = 12.5 ppm spray on young cabbage plants, first-stage caterpillars, evaluated 3 days later

Measured: inhibition at 12.5 ppm

O=C(O)c1ccccc1-c1ccccc1 [B.11, 2-phenyl-benzoic acid]
> 80%: Tetranychus urticae; [1] | Spodoptera littoralis; [2] | Diabrotica balteata; [3] | Plutella xylostella; [4]

Cc1ccc(C(=O)O)cc1 [B.32, p-toluic acid]
> 80%: Tetranychus urticae; [1] | Spodoptera littoralis; [2] | Diabrotica balteata; [3] | Plutella xylostella; [4]

O=C(O)c1cccc(F)c1 [B.41, 3-fluoro-benzoic acid]
> 80%: Tetranychus urticae; [1] | Spodoptera littoralis; [2] | Diabrotica balteata; [3] | Plutella xylostella; [4]

Cc1ccc(C)c(C(=O)O)c1 [B.44, 2,5-dimethyl-benzoic acid]
> 80%: Tetranychus urticae; [1] | Spodoptera littoralis; [2] | Diabrotica balteata; [3] | Plutella xylostella; [4]

O=C(O)CCCOc1ccccc1 [B.70, 4-phenoxy-butyric acid]
> 80%: Tetranychus urticae | Spodoptera littoralis | Diabrotica balteata | Plutella xylostella

CC(C)(C)c1ccc(C(=O)O)cc1 [B.71, 4-tert-butyl-benzoic acid]
> 80%: Tetranychus urticae; [1] | Spodoptera littoralis; [2] | Diabrotica balteata; [3] | Plutella xylostella; [4]

O=C(O)c1ccc(O)cc1O [B.82, 2,4-dihydroxy-benzoic acid]
> 80%: Tetranychus urticae; [1] | Spodoptera littoralis; [2] | Diabrotica balteata; [3] | Plutella xylostella; [4]
